Laboratory results: PubChem BioAssay (NCI)
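In this assay, cells in 96-well plates receive the compound at five concentrations for 48 hours. Endpoints are linearly interpolated between the surrounding concentrations. The concentration for full growth arrest is given as TGI.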

Experiments:
Assay in all cases: NCI anticancer screen, dose series, 48 h
[1] = test system: COLO 205 colon
[2] = test system: DMS 114 small cell lung
[3] = test system: HOP-62 NSCLC
[4] = test system: HT29 colon
[5] = test system: NCI-H226 lung
[6] = test system: NCI-H23 lung
[7] = test system: OVCAR-5 ovarian
[8] = test system: OVCAR-8 ovarian
[9] = test system: SF-539 CNS
[10] = test system: SK-OV-3 ovarian
[11] = test system: SNB-19 CNS
[12] = test system: SNB-75 CNS
[13] = test system: TK-10 renal
[14] = test system: UACC-257 melanoma
[15] = test system: UACC-62 melanoma
[16] = test system: CAKI-1 renal
[17] = test system: DU-145 prostate
[18] = test system: MALME-3M melanoma
[19] = test system: PC-3 prostate
[20] = test system: SK-MEL-2 melanoma

Structure (SMILES)	TGI [1] [µM]	TGI [2] [µM]	TGI [3] [µM]	TGI [4] [µM]	TGI [5] [µM]	TGI [6] [µM]	TGI [7] [µM]	TGI [8] [µM]	TGI [9] [µM]	TGI [10] [µM]	TGI [11] [µM]	TGI [12] [µM]	TGI [13] [µM]	TGI [14] [µM]	TGI [15] [µM]	TGI [16] [µM]	TGI [17] [µM]	TGI [18] [µM]	TGI [19] [µM]	TGI [20] [µM]
NC(=O)NC1=NC(Cc2ccccc2)C(=O)N1Cc1ccccc1 (stereo unspecified)	> 100	> 100	> 100	> 100	> 100	> 100	> 100	> 100	> 100	> 100	> 100	> 100	> 100	> 100	> 100					
COC(=O)c1cnn2c1ccc1ccccc12	> 100		> 100	> 100	> 100	> 100	> 100	> 100	> 100	> 100	> 100	> 100	> 100	> 100	> 100	> 100	> 100	> 100	> 100	> 100
CC1=NN(C(=O)CC(=O)Nc2cccc(C)c2)C(=O)C1N=Nc1ccc(S(=O)(=O)c2ccc(N=NC3C(=O)N(C(=O)CC(=O)Nc4cccc(C)c4)N=C3C)cc2)cc1 (stereo unspecified)	> 100		> 100	> 100	> 100	> 100	> 100	> 100	> 100	> 100	> 100	> 100	> 100	> 100	> 100	> 100	> 100	> 100	> 100	> 100
CN(C)CCNC1=CC(=O)c2nc3ccccc3c3ccnc1c23	9.21		25.6	14.2	18.8	18.9	34.1	37.5	15.5	29.4	29.6	27.8	97.5	22.6	18.2	18.9	22.4	16.2	17.2	20.7
CC(=O)O[C@H]1CC[C@@]2(C)C(=C[C@H](c3ccc(O)cc3)[C@H]3[C@@H]4CC[C@H](OC(C)=O)[C@@]4(C)CC[C@@H]32)C1	35.2		66.9	26.5	40.5	53.7	97.9	33.8	43.9	> 100	47.7	51.7	> 100	51.6	23	53.4	48.8	34.2	46.2	48.4
